From patent US9145382B2, “Organic compound and electrochromic device using the same” (CANON KABUSHIKI KAISHA, priority 2014, dated 2015)

Legend:
Assay type in all cases: physicochemical
[1] = Absorption spectrum in the oxidized (colored) state, oxidation at constant potential; settings: 5.0×10^−4 mol/L in 0.1 mol/L tetrabutylammonium perchlorate in propylene carbonate
Description: Next, the absorption spectra in the oxidized (colored) state were measured. Specifically, the absorption spectra were measured using a measuring cell provided with a work electrode, a counter electrode, a reference electrode and a liquid tank. Here, the electrodes provided in the measuring cell and the solute and solvent which are contained in the solution charged to the liquid tank will be shown below.
(§1) Counter electrode: Platinum
(§2) Reference electrode: Silver
Solute: Evaluation target compounds (illustrated compounds A-1 and A-3)
Solvent (supporting electrolyte): Solution of tetrabutylammonium perchlorate in propylene carbonate (0.1 mol/L)
(Note that the concentration of the solution charged to the liquid tank is 5.0×10^−4 mol/L.)
A compound was subjected to oxidation at a constant potential by applying a potential equal to or higher than the oxidation potential of the compound using the measuring cell to thereby measure the change in the absorption spectra and transmittance spectra. Here, the absorption peak wavelength in the colored state (oxidized state) and the absorption peak wavelength in the bleached state (neutral state) are shown in the following Table 3.

[2] = Durable stability against oxidation-reduction cycle (square-wave potential program, CV oxidation peak current); settings: for Durability evaluation: change in oxidation peak current (CV) before and after 10000 oxidation-reduction cycles, 1.0×10^−4 mol/L in 0.1 mol/L tetrabutylammonium perchlorate in dichloroethane
Description: The durable stability against the oxidation-reduction cycle of the organic EC compound according to the present invention was evaluated. Specifically, the durability against repetition of an oxidation-reduction was evaluated using the illustrated compound A-1, the illustrated compound A-3 and Ref-1 as evaluation targets.
The measurement of durability against repetition of an oxidation-reduction was performed using a solution prepared by dissolving each compound in a predetermined solvent as a target sample, using a measuring apparatus provided with a work electrode, a counter electrode and a reference electrode. Here, the electrodes provided in the measuring apparatus and the solvent used will be shown below.
Work electrode: Glassy carbon
as §1, §2
Supporting electrolyte (solvent): Solution of tetrabutylammonium perchlorate in dichloroethane (0.1 mol/L)
Solution concentration: 1.0×10^−4 mol/L
The above solution was subjected to a square-wave potential program including oxidation at a constant potential and reduction at a constant potential for 10000 times. Here, the oxidation at a constant potential is a process of applying a potential equal to or higher than the oxidation potential of a target compound to the above solution for 10 seconds, and the reduction at a constant potential is a process of applying a potential of 0 V based on the reference electrode (Ag/Ag^+) to the above solution for 10 seconds.
The durability against repetition of an oxidation-reduction was evaluated based on the change in the amount of oxidation peak current in cyclic voltammetry (CV) measurement before and after the oxidation-reduction cycles for 10000 times. Specifically, when the rate of change in the amount of oxidation peak current was less than 20%, the durability was evaluated as Good, and when the rate of change was 20% or more, the durability was evaluated as Poor.

[3] = Measurement of solubility in propylene carbonate; settings: for solubility: organic solvent or mixture
Description: [Measurement of Solubility in Propylene Carbonate]
Note that propylene carbonate is a solvent contained in the electrochromic layer constituting the EC device. Further, Ref-1 is a compound in which methyl groups having no ethylene oxide chains are substituted at the 3-position and the 4-position of the thiophene ring, and substituents (substituents corresponding to A1 and A2 in general formula [1]) at the ortho positions of the phenyl group bonded to the thiophene ring are hydrogen atoms (no substitution).

[4] = Absorption spectrum in the neutral (bleached) state, UV-visible spectrophotometer; settings: in chloroform
Description: The illustrated compound A-1 obtained was dissolved in chloroform, and the resulting solution was measured using an ultraviolet and visible spectrophotometer (V-560 manufactured by JASCO Corporation). As a result, an absorption spectrum illustrated in FIG. 6 was obtained.
Solutions prepared by dissolving compounds synthesized in Examples in chloroform were measured for the absorption spectra in the neutral state (bleached state) using an ultraviolet and visible spectrophotometer (V-560 manufactured by JASCO Corporation).

SMILES	Oxidized absorption λmax′ [1] [nm]	Durability evaluation [2]	solubility [3] [mM]	absorption in the visible light region (neutral state) [4]	Neutral absorption λmax ([4]; neutral (bleached) state) [nm]	number of oxidation-reduction cycles after which the amount of oxidation peak current was decreased by 20% ([2]; square-wave potential program, 10 s oxidation / 10 s reduction)	appearance of solution when a concentration of 6 mM was going to be prepared ([3]; 6 mM)
COCCOCc1c(-c2c(OC)cccc2OC(C)C)sc(-c2c(OC)cccc2OC(C)C)c1COCCOC [A-1]	415.8	Good (when the rate of change in the amount of oxidation peak current was less than 20%, the durability was evaluated as Good)	≥ 150	does not have absorption over the whole visible light region	282.0		
Cc1c(-c2ccccc2)sc(-c2ccccc2)c1C [Ref-1]		Poor (when the rate of change was 20% or more, the durability was evaluated as Poor)	< 6			about 2400 times	turbid
